Test results published in patent publication US20170216244A1, “METHODS FOR TREATING DIABETIC NEPHROPATHY” (YALE UNIVERSITY, priority 2014, published 2017).
Several values for one entry are separate records, joined by “and”; a condition that tells them apart may be missing. Equal entries are not always repeated. Entries after “also recorded” stand apart in the source; their conditions may differ.

Tests used:
Sema3a^+ podocytes = assay: Podocyte morphology assay (rhodamine-phalloidin staining, cell area morphometry); format: cell-based
Procedure: Sema3a^+ podocyte cell line was described previously (Reidy et al., Am J Pathol 2013;183(4):1156-1168). Sema3a^+ podocytes were exposed to RPMI 1640 medium+1%FBS, medium+0.1 μM xanthofulvin, medium+100 ng/ml rat recombinant Sema3a (Reidy et al., Development 2009;136(23):3979-3989) or medium+xanthofulvin+Sema3a for 16 h, fixed and stained with rhodamine-phalloidin. Images were acquired (Zeiss Axiovert); podocyte area (μm^2) was measured using Zeiss AxioVision software as described (Reidy et al., Am J Pathol 2013;183(4):1156-1168), n=71±4 cells/experimental condition from 3 independent experiments were measured.

[1] = tested on: Sema3a^+ gain-of-function diabetic mice; assay: Sema3a inhibition study: xanthofulvin subcutaneous infusion in Sema3a^+ gain-of-function diabetic mice; format: in vivo, mouse
Procedure: Podocin-rtTA:tet-O-Sema3a mice, herein called Sema3a^+, generated previously (Reidy et al., Development 2009;136(23):3979-3989) were maintained in FVB genetic background for >10 generations. Diabetes was induced (low dose protocol, AMDCC.org) in 6-8 weeks old male Sema3a^+ mice by 5 daily i.p. streptozotocin (STZ) (50 mg/kg) . Diabetes (random blood glucose >300 mg/dl) was confirmed using glucose oxidase biosensor blood glucose meter (One-Touch-Ultra-2; LifeScan) one week after the last STZ injection. Diabetic Sema3a^+ (DM-Sema3a^+) (n=15) and non-diabetic Sema3a^+ (non-DM-Sema3a^+) (n=18) mice were fed doxycycline-containing diet (0.625mg/kg chow, Harlan-Teklad) or standard chow for 12-16 weeks. After 12-16 weeks of diabetes, 24 h urine was collected in metabolic cages, blood and kidneys were collected under anesthesia. For Sema3a inhibition studies, DM-Sema3a^+ mice were fed doxycycline-containing chow for 8 weeks, then Alzet osmotic pumps (Model 1004) containing xanthofulvin (0.5 mg/ml in PBS) (Ieda et al., Nat Med 2007;13(5):604-612) (n=4) or saline (n=2) were implanted subcutaneously, all mice were kept on doxycycline-containing chow for the following 4 weeks.
Urinary albumin was measured using mouse albumin ELISA (Bethyl Laboratories) and SDS-PAGE/Coomassie Blue staining as described (Reidy et al., Am J Pathol 2013;183(4):1156-1168). Plasma and 24h urine creatinine were measured by HPLC. Transmission electron microscopy (TEM) was performed using standard techniques. Glomerular area was measured using ImageJ-NIH (rsb.info.nih.gov/ij/) in 34±2.1 glomeruli/kidney from 4 mice/experimental condition. A renal pathologist (G.M.) examined PAS stained kidney specimens in blinded fashion and assigned a semiquantitative pathology score based on % area (0=none;1=1-25%;2=26-50%;3=51-75%;4=76-100%) with the following features: glomerular nodules, mesangiolysis, mesangial sclerosis and interstitial fibrosis. The percentage glomeruli/section containing mesangiolysis or nodules was calculated (Veron et al., J Am Soc Nephrol. 2014;25(8):1814-1824).

Sema3a = target: T1, Sema3a (Homo sapiens, UniProt Q14563); conditions: fungal and synthetic xanthofulvin, in vitro; cited from earlier work
T1 sequence (Q14563 21-771): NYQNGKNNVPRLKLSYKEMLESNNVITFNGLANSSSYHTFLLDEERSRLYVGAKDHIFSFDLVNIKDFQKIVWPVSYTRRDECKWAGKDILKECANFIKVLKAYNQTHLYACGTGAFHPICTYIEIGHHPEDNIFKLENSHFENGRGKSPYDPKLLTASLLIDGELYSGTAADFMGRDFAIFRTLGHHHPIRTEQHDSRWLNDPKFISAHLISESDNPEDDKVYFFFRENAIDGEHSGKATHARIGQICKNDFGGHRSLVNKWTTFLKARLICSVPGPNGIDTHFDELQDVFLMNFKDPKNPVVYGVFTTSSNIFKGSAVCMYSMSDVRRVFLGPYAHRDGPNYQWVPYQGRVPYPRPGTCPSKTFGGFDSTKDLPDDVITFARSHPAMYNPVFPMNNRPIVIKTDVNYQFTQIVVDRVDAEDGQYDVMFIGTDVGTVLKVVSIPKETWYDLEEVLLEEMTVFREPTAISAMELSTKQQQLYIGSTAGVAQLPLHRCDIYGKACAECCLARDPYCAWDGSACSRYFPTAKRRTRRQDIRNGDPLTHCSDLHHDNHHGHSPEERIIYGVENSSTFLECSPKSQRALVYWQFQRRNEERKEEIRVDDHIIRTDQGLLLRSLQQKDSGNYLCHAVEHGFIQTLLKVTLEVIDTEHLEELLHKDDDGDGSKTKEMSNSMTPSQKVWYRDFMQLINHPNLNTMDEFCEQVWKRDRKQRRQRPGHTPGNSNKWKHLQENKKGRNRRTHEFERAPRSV

[2] = purified fungal xanthofulvin, in vivo; cited from earlier work
MICAL1 = assay: Podocyte MICAL1 knockdown by siRNA, immunoblot; format: cell-based, mouse; conditions: 200 pmol siRNA, 72 hours, cultured podocytes, densitometry
Procedure: Equal amount of protein from ≧4 kidney lysates/experimental condition were pooled and resolved by SDS-PAGE, immunoblotting was performed using standard technique with the following primary antibodies: WT1, podocin, nephrin, laminin, Sema3a (sc-28867; Santa Cruz), β3-integrin (sc-14009; Santa Cruz), β1-integrin (AB1952; EMD-Millipore), neuropilin-1 (Kolodkin et al., Cell 1997;90:753-762; Takahashi et al., Cell 1999;99(1):59-69), MMP-2 (MAB13434; EMD-Millipore), MMP-9 (AB19016; EMD-Millipore), plexinA1 (sc-25639; Santa Cruz), VEGFR-2 (2479; Cell Signaling), MICAL1 (14818-1-AP; Proteintech); actin (A2066; Sigma) or tubulin (Sigma) were used as loading controls. Signals were detected with appropriate HRP-conjugated secondary antibodies, visualized by chemiluminescence and quantified using ImageJ.
(§1) Podocyte MICAL-1 knockdown was induced using a mouse MICAL-1 siRNA oligonucleotide ([…], SEQ ID NO: 1) (Zhou et al., Mol Cell Biol 2011;31(17):3603-3615) (Dharmacon). Briefly, podocytes were transfected with 200 pmol MICAL-1 siRNA or scrambled siRNA using Oligofectamine (Invitrogen) and incubated for 72 hours. MICAL1 knockdown was confirmed by immunoblot. Podocytes with or without MICAL1 knockdown were exposed to mouse recombinant Sema3a (100 ng/ml) for 6 hours. Podocytes were fixed, permeabilized, stained with rhodamine-phalloidin, and their morphology was analyzed as described above.

podocytes = assay: Podocyte MICAL1 knockdown morphology assay; format: cell-based; conditions: mouse recombinant Sema3a 100 ng/ml, 6 hours
Procedure: as §1

[3] = constant subcutaneous infusion ~1.8 μg/d for 30 days

Molecule	Sema3a-induced podocyte F-actin collapse, shape change and contraction (Sema3a^+ podocytes; 0.1 μM xanthofulvin, 100 ng/ml rat recombinant Sema3a, synthetic xanthofulvin)	deleterious effects in cultured podocytes (Sema3a^+ podocytes; cultured podocytes)	GBM thickness (TEM morphometry) [1, 3]	body weight [1, 3]	creatinine clearance (renal insufficiency) [1, 3]	diabetic glomerulosclerosis phenotype by histology and TEM [1, 3]	foot process effacement / FP width (TEM morphometry) [1, 3]	plasma albumin (hypoalbuminemia) [1, 3]	side effect [1, 3]	albuminuria ([1]; constant subcutaneous infusion ~1.8 μg/d for 30 days (weeks 8-12 after diabetes onset))	Sema3a-induced growth cone collapse (Sema3a)	functional recovery of injured spinal cord [2]	decrease of MICAL1 expression (knockdown) (MICAL1)	Sema3a-induced podocyte contraction and F-actin collapse after MICAL1 knockdown (podocytes)
CC(=O)c1c(C)c(/C(O)=C2\COc3cc(O)c(O)c(C(=O)O)c3C2=O)cc2c(=O)c3c(C(=O)O)c(O)c(O)cc3oc12 [xanthofulvin]	prevented Sema3a-induced podocyte F-actin collapse, shape change and contraction; also recorded: abrogates Sema3a-induced podocyte contraction in vitro; also recorded: abrogates Sema3a-induced podocyte F-actin collapse in vitro; also recorded: abrogates Sema3a-induced podocyte F-actin collapse, shape change and contraction	no deleterious effects in cultured podocytes	significantly decreased GBM thickness; also recorded: quite normal GBM	stable body weight	abrogated renal insufficiency; also recorded: normalized	markedly attenuates the diabetic glomerulosclerosis phenotype; also recorded: abrogate the diabetic nodular glomerulosclerosis; also recorded: abrogated; also recorded: mild mesangial hypercellularity and extracellular matrix expansion	significantly decreased; also recorded: focal FPE	corrects hypoalbuminemia; also recorded: normalized	no apparent side effect	significantly decreases albuminuria; also recorded: decreased albuminuria; also recorded: improved albuminuria	prevent Sema3a-induced growth cone collapse in vitro	promotes functional recovery of injured spinal cord	–	–
siRNA: mouse MICAL-1 siRNA oligonucleotide (CAGGUGCCAUGACUAAGUAUU, SEQ ID NO: 1) (listed as RNA, chemistry not given here; listed as Mus musculus)	–	–	–	–	–	–	–	–	–	–	–	–	73±2.6% and ~75%	not susceptible to Sema3a-induced contraction; also recorded: prevents Sema3a-induced podocyte contraction and F-actin collapse
